Assay results: patent US5420335A, “Parenteral nutrients based on watersoluble glycerol bisacetoacetates” (priority 1993, dated 1995)
Values joined by “and” are separate entries in the source; they are usually repeats but may differ in a detail not shown here. Equal entries are not always repeated.

Columns and labels:
Type in all cases: in vivo, rat (male Sprague-Dawley)
[1] = Daily urinary nitrogen losses of intravenously infused rats
Method: (§1) Water was available ad libitum at all times.
(§2) The vein was then ligated dorsally to the catheter. […] Body weights were measured daily.
(§3) Infusate volume, oral food intake, body weight and urinary volume and total nitrogen were monitored daily for each rat. Infusate volume and food intake were determined by weighing the appropriate container at the start and end of each 24 hr. period. Measurements were recorded between 9 and 10 AM each day. At the end of the 7th day, rats were sacrificed, and blood and liver were harvested. Plasma was separated for measurement of free fatty acids, glucose, and ketone bodies. Liver was weighed and a sample was fixed in buffered formalin for gross histology.
The data were analyzed for significance by the one-way analysis of variance with repeated measures and comparing the effect of dietary treatment on each day. […] The null hypothesis was concluded invalid if p≤0.05. The analysis of variance was computed on a SAS statistical package. […]

[2] = Oral dietary nitrogen (food) intake of intravenously infused rats
[3] = Nitrogen balance (difference between intake and urinary output); settings: for Nitrogen Balance, Difference Between Intake and Output: Table 3, Example 2
Method: as §1, §2, §3
(§4) The data were analyzed for significance by the one-way analysis of variance with repeated measures and comparing the effect of dietary treatment on each day. […] The null hypothesis was concluded invalid if p≤0.05. The analysis of variance was computed on a SAS statistical package.
FIG. 3 illustrates the difference between oral intake and urinary nitrogen output which is termed nitrogen balance. It is representative of nitrogen balance because urinary nitrogen is the major route for body loss of nitrogen.
The experimental compound contains 8% nitrogen. With an infusion of 5.6 grams/day, infused nitrogen would provide approximately 450 mg more than that listed in the data tables. The final balance figures includes this number which is calculated based on the actual daily infusion rate for each rat.

[4] = Daily body weight of intravenously infused rats; settings: Table 4, Example 2, day 0
Method: as §1, §2, §3, §4
This compound has an estimated energy density of 4.86 kcal/gram based on thermodynamic data from similar compounds.

OC[C@H]1OC(O)[C@H](O)[C@@H](O)[C@@H]1O (some centres unmarked) [Glucose, glucose, reference compound]
Urinary Nitrogen ([1]; Table 2, Example 2, day 1, average of 7 rats): 144 mg | Urinary Nitrogen ([1]; Table 2, Example 2, day 1, individual rat): 164.08 mg and 92.04 mg and 219.2 mg and 80.25 mg and 78.51 mg and 282.44 mg and 88.28 mg | Urinary Nitrogen ([1]; Table 2, Example 2, day 2, average of 7 rats): 146 mg | Urinary Nitrogen ([1]; Table 2, Example 2, day 2, individual rat): 131.95 mg and 74.58 mg and 311.7 mg and 147.44 mg and 42.51 mg and 224.09 mg and 88.37 mg | Urinary Nitrogen ([1]; Table 2, Example 2, day 3, average of 7 rats): 203 mg | Urinary Nitrogen ([1]; Table 2, Example 2, day 3, individual rat): 58.42 mg and 94.88 mg and 599.66 mg and 115.01 mg and 145.05 mg and 174.3 mg and 236.92 mg | Urinary Nitrogen ([1]; Table 2, Example 2, day 4, average of 7 rats): 129 mg | Urinary Nitrogen ([1]; Table 2, Example 2, day 4, individual rat): 109.72 mg and 80.52 mg and 274.22 mg and 93.31 mg and 78.6 mg and 145.43 mg and 124.12 mg | Urinary Nitrogen ([1]; Table 2, Example 2, day 5, average of 7 rats): 177 mg | Urinary Nitrogen ([1]; Table 2, Example 2, day 5, individual rat): 111.02 mg and 125.89 mg and 316.17 mg and 84.8 mg and 224.34 mg and 241.17 mg and 137.97 mg | Urinary Nitrogen ([1]; Table 2, Example 2, day 6, average of 7 rats): 178 mg | Urinary Nitrogen ([1]; Table 2, Example 2, day 6, individual rat): 114.67 mg and 65.54 mg and 227.23 mg and 135.24 mg and 118.95 mg and 333.85 mg and 252.42 mg | Urinary Nitrogen ([1]; Table 2, Example 2, day 7, average of 7 rats): 218 mg | Urinary Nitrogen ([1]; Table 2, Example 2, day 7, individual rat): 71.89 mg and 105.54 mg and 474.91 mg and 159.89 mg and 124.66 mg and 267 mg and 319.39 mg | Urinary Nitrogen ([1]; Table 8, Example 4, day 1, average of 9 rats): 128 mg | Urinary Nitrogen ([1]; Table 8, Example 4, day 1, individual rat): 252 mg and 114.8 mg and 82.1 mg and 75.4 mg and 22.4 mg and 158.4 mg and 133.9 mg and 148.3 mg and 164.3 mg | Urinary Nitrogen ([1]; Table 8, Example 4, day 2, average of 9 rats): 135 mg | Urinary Nitrogen ([1]; Table 8, Example 4, day 2, individual rat): 266.4 mg and 153.9 mg and 105 mg and 57 mg and 91.8 mg and 159.8 mg and 111 mg and 108.9 mg and 158 mg | Urinary Nitrogen ([1]; Table 8, Example 4, day 3, average of 9 rats): 106 mg | Urinary Nitrogen ([1]; Table 8, Example 4, day 3, individual rat): 151 mg and 89.1 mg and 107.2 mg and 68.4 mg and 118.3 mg and 131.9 mg and 135.4 mg and 59.8 mg and 91.8 mg | Urinary Nitrogen ([1]; Table 8, Example 4, day 4, average of 9 rats): 125 mg | Urinary Nitrogen ([1]; Table 8, Example 4, day 4, individual rat): 127.2 mg and 92.7 mg and 114.8 mg and 44.5 mg and 73.8 mg and 165.9 mg and 168.7 mg and 93.6 mg and 240.1 mg | Urinary Nitrogen ([1]; Table 8, Example 4, day 5, average of 9 rats): 131 mg | Urinary Nitrogen ([1]; Table 8, Example 4, day 5, individual rat): 127.8 mg and 97.7 mg and 93.7 mg and 45.9 mg and 84.8 mg and 236.3 mg and 166.4 mg and 123.4 mg and 203.2 mg | Urinary Nitrogen ([1]; Table 8, Example 4, day 6, average of 9 rats): 172 mg | Urinary Nitrogen ([1]; Table 8, Example 4, day 6, individual rat): 256.3 mg and 104.9 mg and 133.7 mg and 72.7 mg and 138.3 mg and 307.5 mg and 146.9 mg and 169.4 mg and 215.2 mg | Urinary Nitrogen ([1]; Table 8, Example 4, day 7, average of 9 rats): 162 mg | Urinary Nitrogen ([1]; Table 8, Example 4, day 7, individual rat): 118.3 mg and 106.6 mg and 175.8 mg and 22.6 mg and 145.6 mg and 384.8 mg and 126.8 mg and 162.4 mg and 212.8 mg | urinary nitrogen losses ([1]; in words, 7 days): Saline infused rats also lost more nitrogen in the urine than did glucose infused rats | Dietary Nitrogen Intake ([2]; Table 1, Example 2, day 1, average of 7 rats): 203 MG N | Dietary Nitrogen Intake ([2]; Table 1, Example 2, day 2, average of 7 rats): 302 MG N | Dietary Nitrogen Intake ([2]; Table 1, Example 2, day 3, average of 7 rats): 291 MG N | Dietary Nitrogen Intake ([2]; Table 1, Example 2, day 4, average of 7 rats): 322 MG N | Dietary Nitrogen Intake ([2]; Table 1, Example 2, day 5, average of 7 rats): 290 MG N | Dietary Nitrogen Intake ([2]; Table 1, Example 2, day 7, average of 7 rats): 354 MG N | Dietary Nitrogen Intake ([2]; Table 7, Example 4, oral only, day 1, average of 9 rats): 279 MG N | Dietary Nitrogen Intake ([2]; Table 7, Example 4, oral only, day 1, individual rat): 500.08 MG N and 388.22 MG N and 164.5 MG N and 151.34 MG N and 78.96 MG N and 421.12 MG N and 329 MG N and 98.7 MG N and 375.06 MG N | Dietary Nitrogen Intake ([2]; Table 7, Example 4, oral only, day 2, average of 9 rats): 369 MG N | Dietary Nitrogen Intake ([2]; Table 7, Example 4, oral only, day 2, individual rat): 519.82 MG N and 513.24 MG N and 500.08 MG N and 98.7 MG N and 269.78 MG N and 434.28 MG N and 342.16 MG N and 243.46 MG N and 401.38 MG N | Dietary Nitrogen Intake ([2]; Table 7, Example 4, oral only, day 3, average of 9 rats): 323 MG N | Dietary Nitrogen Intake ([2]; Table 7, Example 4, oral only, day 3, individual rat): 355.32 MG N and 388.22 MG N and 394.8 MG N and 151.34 MG N and 467.18 MG N and 407.96 MG N and 197.4 MG N | Dietary Nitrogen Intake ([2]; Table 7, Example 4, oral only, day 4, average of 9 rats): 372 MG N | Dietary Nitrogen Intake ([2]; Table 7, Example 4, oral only, day 4, individual rat): 506.66 MG N and 401.38 MG N and 342.16 MG N and 427.7 MG N and 85.54 MG N and 282.94 MG N and 480.34 MG N and 486.92 MG N and 335.58 MG N | Dietary Nitrogen Intake ([2]; Table 7, Example 4, oral only, day 5, average of 9 rats): 379 MG N | Dietary Nitrogen Intake ([2]; Table 7, Example 4, oral only, day 5, individual rat): 493.5 MG N and 421.12 MG N and 368.48 MG N and 335.58 MG N and 0 MG N and 427.7 MG N and 454.02 MG N | Dietary Nitrogen Intake ([2]; Table 7, Example 4, oral only, day 6, average of 9 rats): 382 MG N | Dietary Nitrogen Intake ([2]; Table 7, Example 4, oral only, day 6, individual rat): 500.08 MG N and 454.02 MG N and 375.06 MG N and 329 MG N and 0 MG N and 394.8 MG N and 421.12 MG N and 447.44 MG N and 519.82 MG N | Dietary Nitrogen Intake ([2]; Table 7, Example 4, oral only, day 7, average of 9 rats): 381 MG N | Dietary Nitrogen Intake ([2]; Table 7, Example 4, oral only, day 7, individual rat): 421.12 MG N and 414.54 MG N and 355.32 MG N and 32.9 MG N and 401.38 MG N and 473.76 MG N and 407.96 MG N and 500.08 MG N | nitrogen balance ([3]; Example 2, 7 days): around +100 mg/day | nitrogen balance ([3]; Example 4, infused nitrogen considered (FIG. 8)): over 200 mg/day | Nitrogen Balance, Difference Between Intake and Output ([3]; day 1, average of 7 rats): 59 MG N | Nitrogen Balance, Difference Between Intake and Output ([3]; day 1, individual rat): -52.22 MG N and 72.46 MG N and -54.7 MG N and 31.61 MG N and 33.35 MG N and 204.48 MG N and 181.5 MG N | Nitrogen Balance, Difference Between Intake and Output ([3]; day 2, average of 7 rats): 156 MG N | Nitrogen Balance, Difference Between Intake and Output ([3]; day 2, individual rat): 85.19 MG N and 10.96 MG N and 116 MG N and 69.7 MG N and 102.25 MG N and 269.41 MG N and 438.03 MG N | Nitrogen Balance, Difference Between Intake and Output ([3]; day 3, average of 7 rats): 88 MG N | Nitrogen Balance, Difference Between Intake and Output ([3]; day 3, individual rat): 92.92 MG N and 23.56 MG N and -40.36 MG N and -62.37 MG N and 104.99 MG N and 102.06 MG N and 394.76 MG N | Nitrogen Balance, Difference Between Intake and Output ([3]; day 4, average of 7 rats): 193 MG N | Nitrogen Balance, Difference Between Intake and Output ([3]; day 4, individual rat): 21.88 MG N and 37.92 MG N and 298.24 MG N and 5.39 MG N and 316.2 MG N and 269.11 MG N and 402.28 MG N | Nitrogen Balance, Difference Between Intake and Output ([3]; day 5, average of 7 rats): 113 MG N | Nitrogen Balance, Difference Between Intake and Output ([3]; day 5, individual rat): 125.86 MG N and 104.41 MG N and 91.79 MG N and 73.12 MG N and -0.62 MG N and -24.03 MG N and 421.33 MG N | Nitrogen Balance, Difference Between Intake and Output ([3]; day 6, average of 7 rats): 124 MG N | Nitrogen Balance, Difference Between Intake and Output ([3]; day 6, individual rat): 3.77 MG N and 39.74 MG N and 16.23 MG N and 206.92 MG N and 170.57 MG N and 41.21 MG N and 392.42 MG N | Nitrogen Balance, Difference Between Intake and Output ([3]; day 7, average of 7 rats): 137 MG N | Nitrogen Balance, Difference Between Intake and Output ([3]; day 7, individual rat): 105.77 MG N and 52.38 MG N and -205.13 MG N and 366.51 MG N and 85.9 MG N and 206.76 MG N and 345.19 MG N | nitrogen balance ([3]; in words, 7 days): positive nitrogen balances | Daily Body Weight ([4]; average of 7 rats): 258 Grams | Daily Body Weight ([4]; individual rat): 244 Grams and 228 Grams and 290 Grams and 250 Grams and 247 Grams and 281 Grams and 269 Grams
